SMILES strings stand for the structures. Where a name gives a salt, the structure may show the parent alone.

The test system of one experiment is Acinetobacter baumannii ATCC17978. Kind of experiment: 90% growth inhibitory concentration (IC90) determination, antimicrobial susceptibility testing. The class given is cell-based. As to conditions: ATCC17978, 90% growth inhibition, Iso-Sensitest broth, OD 600 nm over 16 h, 35±2° C., read-out: ATCC 17978 IC90. As to the method: Antimicrobial Susceptibility Testing:
90% Growth Inhibitory Concentration (IC90) Determination
The in vitro antimicrobial activity of the compounds was determined according to the following procedure:
The assay used a 10-points Iso-Sensitest broth medium to measure quantitatively the in vitro activity of the compounds against Acinetobacter baumannii ATCC17961 and ATCC17978.
Stock compounds in DMSO were serially twofold diluted (e.g. range from 50 to 0.097 μM final concentration) in 384 wells microtiter plates and inoculated with 49 μl the bacterial suspension in Iso-Sensitest medium to have a final cell concentration of ˜5×10^(5) CFU/ml in a final volume/well of 50 ul/well. Microtiter plates were incubated at 35±2° C.
Bacterial cell growth was determined with the measurement of optical density at λ=600 nm each minutes over a time course of 16 h. Growth inhibition was calculated during the logarithmic growth of the bacterial cells with determination of the concentration inhibiting 50% (IC50) and 90% (IC90) of the growth.
Table 1 provides the 90% growth inhibitory concentrations (IC90) in micromoles per liter of the compounds of present invention obtained against the strain Acinetobacter baumannii ATCC17978.
On to `CCCC[N+](CCCC)(CCCC)CCCNC(=O)c1ccc(Nc2nccn3c(-c4ccc(OC)c(F)c4F)cnc23)cc1Cl` [Example 49, Tributyl-[3-[[2-chloro-4-[[3-(2,3-difluoro-4-methoxy-phenyl)imidazo[1,2-a]pyrazin-8-yl]amino]benzoyl]amino]propyl]ammonium Formate], for which the IC90 was determined as 968 nM.

Turning to `CCc1cc(Nc2nccn3c(-c4ccc(OC)c(F)c4F)cnc23)ccc1C(=O)NCCOCC[N+](C)(C)CC(=O)O` [Example 50, Carboxymethyl-[2-[2-[[4-[[3-(2,3-difluoro-4-methoxy-phenyl)imidazo[1,2-a]pyrazin-8-yl]amino]-2-ethyl-benzoyl]amino]ethoxy]ethyl]-dimethyl-ammonium Formate], the IC90 worked out at 394 nM.

Turning to `CCc1cc(Nc2nccn3c(-c4ccc(OC)c(F)c4F)cnc23)ccc1C(=O)NCCOCC[N+](C)(C)CCO` [Example 51, 2-[2-[[4-[[3-(2,3-Difluoro-4-methoxy-phenyl)imidazo[1,2-a]pyrazin-8-yl]amino]-2-ethyl-benzoyl]amino]ethoxy]ethyl-(2-hydroxyethyl)-dimethyl-ammonium formate], the IC90 stood at 62.8 nM.

With `CCc1cc(Nc2nccn3c(-c4ccc(OC)c(F)c4F)cnc23)ccc1C(=O)NCCOCC[N+](C)(C)CC(N)=O` [Example 52, (2-Amino-2-oxo-ethyl)-[2-[2-[[4-[[3-(2,3-difluoro-4-methoxy-phenyl)imidazo[1,2-a]pyrazin-8-yl]amino]-2-ethyl-benzoyl]amino]ethoxy]ethyl]-dimethyl-ammonium Formate], the 90% effect concentration (IC90) worked out at 38.8 nM.

For the compound `CCc1cc(Nc2nccn3c(-c4ccc(OC)c(F)c4F)cnc23)ccc1C(=O)NCCOCC[N+](C)(C)CCCC(=O)O` [Example 53, 3-Carboxypropyl-[2-[2-[[4-[[3-(2,3-difluoro-4-methoxy-phenyl)imidazo[1,2-a]pyrazin-8-yl]amino]-2-ethyl-benzoyl]amino]ethoxy]ethyl]-dimethyl-ammonium Formate], the 90% effect concentration (IC90) is 405 nM.

As to `C[N+](C)(C)CC(=O)N1CCN(C(=O)c2ccc(Nc3nccn4c(-c5ccc(OCC#N)c(F)c5F)cnc34)cc2Cl)CC1` [Example 54, 2-(4-(2-Chloro-4-((3-(4-(cyanomethoxy)-2,3-difluorophenyl)imidazo[1,2-a]pyrazin-8-yl)amino)benzoyl)piperazin-1-yl)-N,N,N-trimethyl-2-oxoethan-1-aminium Formate], the IC90 worked out at 45.2 nM.

Another experiment deals with Acinetobacter baumannii ATCC 17978. The experiment in a line: Minimal inhibitory concentration (MIC) determination, broth microdilution (CLSI M07-A10). Particulars: ATCC17978, lowest concentration for complete growth inhibition, 18-24 hours at 35±2° C., read-out: ATCC 17978 MIC. The experiment is classed as cell-based. On the procedure:
Minimal Inhibitory Concentration (MIC) and MIC90 Determination:
The MIC of antibacterial compounds against multiple species and strains was determined using the broth microdilution method according to M07-A10 Clinical and Laboratory Standards Institute (CLSI) guidelines (CLSI (2015) Methods for dilution antimicrobial susceptibility tests for bacteria that grow aerobically; Approved Standard, Tenth Edition. CLSI Document M7-A10 (ISBN 1-56238-987-4). Wayne, Pa.: Clinical and Laboratory Standards Institute, 19087, USA), using the appropriate broth medium. In short, the compound plates were prepared by dispensing 100 μl of each stock solution in the first well of a 96 well microtiter plate (MTP) at a concentration 100-fold higher than the final concentration desired in broth. Eleven serial 2-fold dilutions of the highest concentration were made in DMSO for new compounds and in water (or appropriate solution) for reference compounds (CLSI (2017) Performance Standards for Antimicrobial Susceptibility Testing; […] Informational Supplement. CLSI Document M100-S27, CLSI, Wayne, Pa. 19087, USA). 1 μL of each well was transferred in a new MTP, which served as the test plate by subsequent inoculation. This bacterial suspension was prepared from strains that were first sub-cultured on agar plates and incubated for 18-24 hours as appropriate. Following incubation, the inoculum was prepared from isolated colonies and adjusted to 0.5 McFarland turbidity standard (1 to 2×10^8 Colony Forming Units (CFU)/mL) in 0.9% saline. The bacterial suspension was then diluted 1:200 in appropriate sterile medium and within 15 minutes 100 μL/well were dispensed. Negative controls (lack of bacterial cells) and growth control wells (lack of compound) were included in all plates. MTPs were incubated for 18-24 hours at 35±2° C. in ambient air. The MIC value of each compound, expressed as μg/mL, was determined as the lowest concentration required for complete growth inhibition (no visible growth). MIC90 and MIC50 values were defined as the lowest concentration of the antibacterial compound at which 90% and 50% of the strains were inhibited.
Table 3 provides the MIC's of particular compounds of the present invention obtained against the strain Acinetobacter baumannii ATCC 17978, expressed as μg/mL.
Regarding `CCc1cc(Nc2nccn3c(-c4ccc(OC(F)F)c(F)c4F)cnc23)ccc1C(=O)N1CCC(C(=O)N2C[C@@H]3C[C@H]2C[N+]3(C)CC2CNC2)CC1.O=C([O-])C(F)(F)F.O=CO` (mixture of isomers) [Example 100, [4-[[3-[4-(Difluoromethoxy)-2,3-difluoro-phenyl]imidazo[1,2-a]pyrazin-8-yl]amino]-2-ethyl-phenyl]-[4-[rac-(1S,4S)-5-(azetidin-3-ylmethyl)-5-methyl-2-aza-5-azoniabicyclo[2.2.1]heptane-2-carbonyl]-1-piperidyl]methanone; formic acid; 2,2,2-trifluoroacetate (Mixed Salt)], the minimum inhibitory concentration (MIC) amounted to 1.84 µg/mL.

Turning to `CCc1cc(Nc2nccn3c(-c4ccc(Oc5cnn(C)n5)c(F)c4F)cnc23)ccc1C(=O)NCC1CC[N+](C)(CC2CCNC2)CC1.O=C[O-]` (stereo not shown) [Example 6, 4-[[3-[2,3-difluoro-4-(2-methyltriazol-4-yl)oxy-phenyl]imidazo[1,2-a]pyrazin-8-yl]amino]-2-ethyl-N-[[1-methyl-1-(pyrrolidin-3-ylmethyl)piperidin-1-ium-4-yl]methyl]benzamide Formate], the minimum inhibitory concentration (MIC) turned out to be 8.57 µg/mL.

On to `CCc1cc(Nc2nccn3c(-c4ccc(OC(F)F)c(F)c4F)cnc23)ccc1C(=O)N1CCC(C(=O)NCC2CC[N+](C)(CC3CNC3)C2)CC1.O=C([O-])C(F)(F)F.O=CO` (stereo not shown) [Example 98, N-[[1-(Azetidin-3-ylmethyl)-1-methyl-pyrrolidin-1-ium-3-yl]methyl]-1-[4-[[3-[4-(difluoromethoxy)-2,3-difluoro-phenyl]imidazo[1,2-a]pyrazin-8-yl]amino]-2-ethyl-benzoyl]piperidine-4-carboxamide formate/2,2,2-trifluoroacetate (Mixed Salt)], for which the MIC came to 0.92 µg/mL.

Take `CCc1cc(Nc2nccn3c(-c4ccc(OC(F)F)c(F)c4F)cnc23)ccc1C(=O)N1CCC(C(=O)N2CC3(C2)C[N+](C)(CC2CNC2)C3)CC1.O=C([O-])C(F)(F)F.O=CO` [Example 99, [4-[2-(azetidin-3-ylmethyl)-2-methyl-6-aza-2-azoniaspiro[3.3]-6-carbonyl]-1-piperidyl]-[4-[[3-[4-(difluoromethoxy)-2,3-difluoro-phenyl]imidazo[1,2-a]pyrazin-8-yl]amino]-2-ethyl-phenyl]methanone formic acid 2,2,2-trifluoroacetate (Mixed Salt)]: the MIC stood at 0.92 µg/mL.

On to `CCc1cc(Nc2nccn3c(-c4ccc(OC(F)F)c(F)c4F)cnc23)ccc1C(=O)N[C@@H](C)CNC(=O)C1CC[N+](C)(CC2CNC2)CC1.O=C[O-]` (stereo partly drawn) [Example 114, 1-(Azetidin-3-ylmethyl)-N-[(2S)-2-[[4-[[3-[4-(difluoromethoxy)-2,3-difluoro-phenyl]imidazo[1,2-a]pyrazin-8-yl]amino]-2-ethyl-benzoyl]amino]propyl]-1-methyl-piperidin-1-ium-4-carboxamide Formate], for which the minimal inhibitory concentration (MIC) is 17.8 µg/mL.

In the case of `CCc1cc(Nc2nccn3c(-c4ccc(OC)c(F)c4F)cnc23)ccc1C(=O)NCC[N+]1(C)CCC(C(N)=O)C1.O=C([O-])C(F)(F)F` (stereo not shown) [Example 144, 1-[2-[[4-[[3-(2,3-Difluoro-4-methoxy-phenyl)imidazo[1,2-a]pyrazin-8-yl]amino]-2-ethyl-benzoyl]amino]ethyl]-1-methyl-pyrrolidin-1-ium-3-carboxamide 2,2,2-trifluoroacetate], the minimum inhibitory concentration (MIC) is 3.62 µg/mL.

Staying with this experiment, now noted: ATCC17978, read-out: ATCC 17978 MIC.
For `CCc1cc(Nc2nccn3c(-c4ccc(OC(F)F)c(F)c4F)cnc23)ccc1C(=O)N1CCC(C(=O)N2CC3CC(C2)[N+]3(C)CC2CNC2)CC1.O=C(O)C(F)(F)F.O=C([O-])C(F)(F)F.O=CO` (stereo not shown) [Example 101, [4-[6-(Azetidin-3-ylmethyl)-6-methyl-3-aza-6-azoniabicyclo[3.1.1]heptane-3-carbonyl]-1-piperidyl]-[4-[[3-[4-(difluoromethoxy)-2,3-difluoro-phenyl]imidazo[1,2-a]pyrazin-8-yl]amino]-2-ethyl-phenyl]methanone formate 2,2,2-trifluoroacetate (Mixed Salt)], the MIC was 1.84 µg/mL.

These data come from patent publication US20230141600A1, “IMIDAZOPYRAZINE DERIVATIVES” (priority 2020, published 2023).
